We go through 21 compounds from patent publication US4636492A, “Inhibition of viral protease activity by peptide halomethyl ketones” (priority 1984, dated 1987).

Numbered stars: 1 amine (or outer) side, 2 acyl side, 3 side chain; on linkers, the order of the positions; unused ones are H or OH. Square brackets hold non-standard residues; d marks the D form. Peptide text beside a SMILES is read from it. * marks the point of attachment. ξ: configuration not given here. Dansyl = CN(C)c1cccc2c(S(=O)(=O)*)cccc12; Suc = O=C(CCC(=O)[*:2])[*:1]; MeOSuc = COC(=O)CCC(=O)*; Cbz = O=C(OCc1ccccc1)*; Boc = CC(C)(C)OC(=O)*; ξL = CC(C)CC(N)C(=O)O; ξV = CC(C)C(N)C(=O)O; CH2Cl = ClC*

The test system of the first series is human poliomyelitisvirus type 2.
Assay: not given
Type of series: cell-based.
Details: not given
With `CC(C)CC(NC(=O)[C@H](C)NC(=O)CNC(=O)[C@H](Cc1ccccc1)NC(=O)CCC(=O)O)C(=O)CCl` (stereo partly drawn) [Example 3, Suc--Phe--Gly--Ala--LeuCH2 Cl] (Suc-FGA[ξL]-CH2Cl), the “Activity (protease-inhibiting activity)” value was “+++ (key: -: no activity; +/-: low activity; +: active at 100 μg/mL; ++: active at 50 μg/mL; +++: active at 10 μg/mL; ++++: active at <5 μg/mL)”. Same read-out and setting: for `CC(C)CC(NC(=O)[C@H](C)NC(=O)[C@H](CC(C)C)NC(=O)[C@H](Cc1ccccc1)NC(=O)OCc1ccccc1)C(=O)CCl` (stereo partly drawn) [Example 13, Z--Phe--Leu--Ala--LeuCH2 Cl] (Cbz-FLA[ξL]-CH2Cl) the value was “++ (key: -: no activity; +/-: low activity; +: active at 100 μg/mL; ++: active at 50 μg/mL; +++: active at 10 μg/mL; ++++: active at <5 μg/mL)”; for `CC(C)C[C@H](NC(=O)[C@H](C)NC(=O)CNC(=O)[C@H](Cc1ccccc1)NS(=O)(=O)c1cccc2c(N(C)C)cccc12)C(=O)CCl` [Example 5, DNS--Phe--Gly--Ala--LeuCH2 Cl] (Dansyl-FGAL-CH2Cl), “+++ (key: -: no activity; +/-: low activity; +: active at 100 μg/mL; ++: active at 50 μg/mL; +++: active at 10 μg/mL; ++++: active at <5 μg/mL)”. Take `CC(=O)N[C@@H](Cc1ccccc1)C(=O)NCC(=O)N[C@@H](C)C(=O)NC(CC(C)C)C(=O)CCl` (stereo partly drawn) [Example 2, acetyl-L-phenylalanyl-L-glycyl-L-alanyl-L-leucyl chloromethyl ketone] (Ac-FGA[ξL]-CH2Cl): the “Activity (protease-inhibiting activity)” value is “+++ (key: -: no activity; +/-: low activity; +: active at 100 μg/mL; ++: active at 50 μg/mL; +++: active at 10 μg/mL; ++++: active at <5 μg/mL)”. For the compound `CC(C)C[C@H](NC(=O)[C@H](CO)NC(=O)CNC(=O)[C@H](Cc1ccccc1)NC(=O)OCc1ccccc1)C(=O)CCl` [Example 15, Z--Phe--Gly--Ser--LeuCH2 Cl] (Cbz-FGSL-CH2Cl), the “Activity (protease-inhibiting activity)” value is reported as “++ (key: -: no activity; +/-: low activity; +: active at 100 μg/mL; ++: active at 50 μg/mL; +++: active at 10 μg/mL; ++++: active at <5 μg/mL)”.

Turning to `CC(C)C[C@H](NC(=O)[C@H](CC(C)C)NC(=O)CNC(=O)[C@H](Cc1ccccc1)NC(=O)OCc1ccccc1)C(=O)CCl` [Example 12, N-carbobenzoxy-L-phenylalanyl-L-glycyl-L-leucyl-L-leucine chloromethyl ketone] (Cbz-FGLL-CH2Cl), the “Activity (protease-inhibiting activity)” value is on record as “++++ (key: -: no activity; +/-: low activity; +: active at 100 μg/mL; ++: active at 50 μg/mL; +++: active at 10 μg/mL; ++++: active at <5 μg/mL)”. For the compound `CC(C)C[C@H](NC(=O)[C@H](C)NC(=O)CNC(=O)[C@H](Cc1ccccc1)Nc1ccc([N+](=O)[O-])cc1[N+](=O)[O-])C(=O)CCl` [Example 6, DNP--Phe--Gly--Ala--LeuCH2 Cl], the “Activity (protease-inhibiting activity)” value is recorded as “+++ (key: -: no activity; +/-: low activity; +: active at 100 μg/mL; ++: active at 50 μg/mL; +++: active at 10 μg/mL; ++++: active at <5 μg/mL)”.

For the compound `CC[C@H](C)[C@H](NC(=O)[C@H](C)NC(=O)CCC(=O)OC)C(=O)N[C@@H](Cc1ccccc1)C(=O)N[C@@H](CC(C)C)C(=O)CCl` [Example 17, MeOSuc--Ala--Ile--Phe--LeuCH2 Cl] (MeOSuc-AIFL-CH2Cl), the “Activity (protease-inhibiting activity)” value is given as “+++ (key: -: no activity; +/-: low activity; +: active at 100 μg/mL; ++: active at 50 μg/mL; +++: active at 10 μg/mL; ++++: active at <5 μg/mL)”.

`COC(=O)CCC(=O)N[C@@H](Cc1ccccc1)C(=O)NCC(=O)N[C@@H](C)C(=O)N[C@@H](CC(C)C)C(=O)CCl` [Example 4, methoxy-succinyl-L-phenylalanyl-L-glycyl-L-alanyl-L-leucyl chloromethyl ketone] (MeOSuc-FGAL-CH2Cl): the “Activity (protease-inhibiting activity)” value was “+++ (key: -: no activity; +/-: low activity; +: active at 100 μg/mL; ++: active at 50 μg/mL; +++: active at 10 μg/mL; ++++: active at <5 μg/mL)”. The same measure, in the same setting: to `CC(C)C[C@H](NC(=O)[C@H](C)NC(=O)CNC(=O)OC(C)(C)C)C(=O)CCl` [Example 7, Boc--Gly--Ala--LeuCH2 Cl] (Boc-Gly-Ala-Leu-CH2Cl) belongs “++ (key: -: no activity; +/-: low activity; +: active at 100 μg/mL; ++: active at 50 μg/mL; +++: active at 10 μg/mL; ++++: active at <5 μg/mL)”.

As for `CC(C)C(NC(=O)[C@H](C)NC(=O)CNC(=O)[C@H](Cc1ccccc1)NC(=O)OCc1ccccc1)C(=O)CCl` (stereo partly drawn) [Example 11, Z--Phe--Gly--Ala--ValCH2 Cl] (Cbz-FGA[ξV]-CH2Cl), the “Activity (protease-inhibiting activity)” value is given as “++ (key: -: no activity; +/-: low activity; +: active at 100 μg/mL; ++: active at 50 μg/mL; +++: active at 10 μg/mL; ++++: active at <5 μg/mL)”. The same measure, in the same setting: for `CC(C)C[C@H](NC(=O)[C@H](Cc1ccccc1)NC(=O)CNC(=O)[C@H](Cc1ccccc1)NC(=O)OCc1ccccc1)C(=O)CCl` [Example 14, Z--Phe--Gly--Phe--LeuCH2 Cl] (Cbz-FGFL-CH2Cl) the value was “++ (key: -: no activity; +/-: low activity; +: active at 100 μg/mL; ++: active at 50 μg/mL; +++: active at 10 μg/mL; ++++: active at <5 μg/mL)”. In the case of `CC(C)C[C@H](NC(=O)[C@@H]1CCCN1C(=O)CNC(=O)[C@H](Cc1ccccc1)NC(=O)OCc1ccccc1)C(=O)CCl` [Example 16, Z--Phe--Gly--Pro--LeuCH2 Cl] (Cbz-FGPL-CH2Cl), the “Activity (protease-inhibiting activity)” value is “++ (key: -: no activity; +/-: low activity; +: active at 100 μg/mL; ++: active at 50 μg/mL; +++: active at 10 μg/mL; ++++: active at <5 μg/mL)”. Turning to `CC(C)C[C@H](NC(=O)CNC(=O)CNC(=O)[C@H](Cc1ccccc1)NC(=O)OCc1ccccc1)C(=O)CCl` [Example 9, Z--Phe--Gly--Gly--LeuCH2 Cl] (Cbz-FGGL-CH2Cl), the “Activity (protease-inhibiting activity)” value is “+++ (key: -: no activity; +/-: low activity; +: active at 100 μg/mL; ++: active at 50 μg/mL; +++: active at 10 μg/mL; ++++: active at <5 μg/mL)”. The same measure, in the same setting: for `CC(C)CC(NC(=O)C(C)NC(=O)CNC(=O)C(Cc1ccccc1)NC(=O)OCc1ccccc1)C(=O)CBr` (stereo not drawn) [Example 10, Z--Phe--Gly--Ala--LeuCH2 Br] the value was “+++ (key: -: no activity; +/-: low activity; +: active at 100 μg/mL; ++: active at 50 μg/mL; +++: active at 10 μg/mL; ++++: active at <5 μg/mL)”; for `CCC(C)C(NC(=O)C(C)NC(=O)CCC(=O)OC)C(=O)NC(Cc1ccccc1)C(=O)NC(CCC(=O)OC)C(=O)CCl` (stereo not drawn) [Example 19, MeOSuc--Ala--Ile--Phe--Glu(OCH3)CH2 Cl] (MeOSuc-AIFE(OMe)-CH2Cl; configuration not given here), “+++ (key: -: no activity; +/-: low activity; +: active at 100 μg/mL; ++: active at 50 μg/mL; +++: active at 10 μg/mL; ++++: active at <5 μg/mL)”; for `CC(C)C[C@H](NC(=O)[C@H](C)NC(=O)CNC(=O)[C@H](CC(C)C)NC(=O)OCc1ccccc1)C(=O)CCl` [Example 8, Z--Leu--Gly--Ala--LeuCH2 Cl] (Cbz-LGAL-CH2Cl), “+++ (key: -: no activity; +/-: low activity; +: active at 100 μg/mL; ++: active at 50 μg/mL; +++: active at 10 μg/mL; ++++: active at <5 μg/mL)”. The same measure, in the same setting: for `COC(=O)CCC(=O)N[C@@H](Cc1ccccc1)C(=O)NCC(=O)N[C@@H](CC(C)C)C(=O)N[C@@H](CCC(=O)OC)C(=O)CCl` [Example 18, MeOSuc--Phe--Gly--Leu--Glu(OCH3)CH2 Cl] (MeOSuc-FGLE(OMe)-CH2Cl) the value was “++++ (key: -: no activity; +/-: low activity; +: active at 100 μg/mL; ++: active at 50 μg/mL; +++: active at 10 μg/mL; ++++: active at <5 μg/mL)”; for `C[C@H](NC(=O)CNC(=O)[C@H](Cc1ccccc1)NC(=O)OCc1ccccc1)C(=O)N[C@@H](Cc1ccc(O)cc1)C(=O)CCl` [Example 20, Z--Phe--Gly--Ala--TyrCH2 Cl] (Cbz-FGAY-CH2Cl), “++ (key: -: no activity; +/-: low activity; +: active at 100 μg/mL; ++: active at 50 μg/mL; +++: active at 10 μg/mL; ++++: active at <5 μg/mL)”; for `CC(C)C[C@H](NC(=O)[C@H](C)NC(=O)CNC(=O)[C@H](Cc1ccccc1)NC(=O)OCc1ccccc1)C(=O)CCl` [Example 1, Z--Phe--Gly--Ala--LeuCH2 Cl] (Cbz-FGAL-CH2Cl), “+++ (key: -: no activity; +/-: low activity; +: active at 100 μg/mL; ++: active at 50 μg/mL; +++: active at 10 μg/mL; ++++: active at <5 μg/mL)”.

In a further series the test system is Human rhinovirus type 1A. Put plainly: Plaque inhibition assay. It counts as cell-based. The settings on record: HeLa cells, concentration giving 90% plaque reduction.
`CC(C)C[C@H](NC(=O)[C@H](CC(C)C)NC(=O)CNC(=O)[C@H](Cc1ccccc1)NC(=O)OCc1ccccc1)C(=O)CCl` [Example 12, N-carbobenzoxy-L-phenylalanyl-L-glycyl-L-leucyl-L-leucine chloromethyl ketone] (Cbz-FGLL-CH2Cl): the “Antiviral activity, as scored by 90% plaque reduction” value is 1 µg/mL.

The target in a further series is chymotrypsin (Bos taurus, UniProt P00766).
Assay: not given
The settings on record: inhibitor concentration of 600 μg/mL; cited from earlier work.
As for `CC(=O)N[C@@H](CC(C)C)C(=O)N[C@@H](CC(C)C)C(=O)N[C@@H](Cc1ccccc1)C(C)=O` [Ac-Leu-Leu-PheCH3], the Inhibition of chymotrypsin entry is given as “no inhibition was observed”.

Another series deals with T1, subtilisin BPN' (Bacillus amyloliquefaciens, UniProt P00782).
T1 sequence (P00782 108-382): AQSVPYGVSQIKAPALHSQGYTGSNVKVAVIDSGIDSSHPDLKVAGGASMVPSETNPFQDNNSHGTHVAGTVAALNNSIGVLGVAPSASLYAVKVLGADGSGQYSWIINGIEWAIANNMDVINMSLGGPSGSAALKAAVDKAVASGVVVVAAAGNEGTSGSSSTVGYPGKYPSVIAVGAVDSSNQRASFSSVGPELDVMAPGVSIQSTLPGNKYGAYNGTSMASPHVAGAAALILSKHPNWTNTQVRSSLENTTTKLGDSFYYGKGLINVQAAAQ
Assay: not given
The settings on record: among a series of peptide chloromethyl ketones; cited from earlier work.
As for `CC(=O)N[C@@H](Cc1ccccc1)C(=O)NCC(=O)N[C@@H](C)C(=O)NC(CC(C)C)C(=O)CCl` (stereo partly drawn) [Example 2, acetyl-L-phenylalanyl-L-glycyl-L-alanyl-L-leucyl chloromethyl ketone] (Ac-FGA[ξL]-CH2Cl), the “Inhibition of subtilisin BPN' (relative rate)” value was “fastest inhibitor”.

The test system of a further series is human HeLa-O cells.
Assay: not given
Details: not given
Take `CC(C)C[C@H](NC(=O)[C@H](CC(C)C)NC(=O)CNC(=O)[C@H](Cc1ccccc1)NC(=O)OCc1ccccc1)C(=O)CCl` [Example 12, N-carbobenzoxy-L-phenylalanyl-L-glycyl-L-leucyl-L-leucine chloromethyl ketone] (Cbz-FGLL-CH2Cl): the “Cytotoxicity first detected at a concentration” value is on record as “about 15 μg/mL”.
